Experimental data published in PMC10974995 (Pathogens, 2024).
≈ marks a conversion by molar mass, not a printed value. Where two headings read alike, the source gives them in different places.

How the values were obtained:
[1] = test system: boar sperm
[2] = test system: PK-15 (porcine kidney epithelial cells) and/or FFL (feline fetus lung cells)
[3] = test system: Rat; details: po; cited from earlier work
[4] = test system: Fish; details: cited from earlier work
[5] = test system: boar sperm; test: cells
[6] = test system: PK-15 (porcine kidney epithelial cells) and/or FFL (feline fetus lung cells); test: cells; details: Sus scrofa
[7] = test system: differentiated PK-15 cells
[8] = test system: differentiated PK-15 cells; test: cells; details: Sus scrofa, PK-15, read-out: Mitochondrial Toxicity 1d (EC50, acceleration of glycolysis and depolarization of mitochondria)
[9] = 72 h, read-out: EC50 Ex Vivo BSMI 1–3d
[10] = PK-15, 48 h, read-out: EC50 In Vitro ICP 2d
[11] = read-out: EC50 Ex Vivo BSMI, positive controls, mean of 10 or 11 measurements
[12] = PK-15, read-out: EC50 In Vitro ICP, positive controls, mean of 10 or 11 measurements

Compound	EC50 Ex Vivo BSMI 1–3d [1]	Ex Vivo BSMI 1–3d, toxic (+) / nontoxic (−), microbial metabolites ([1]; pig (boar))	EC50 In Vitro ICP 2d [2]	In Vitro ICP 2d, toxic (+) / nontoxic (−), microbial metabolites [2]	In Vivo (toxicity to experimental animals), mycotoxins and fungal metabolites [3]	Toxicity In Vivo LD50 Rat p.o. [3]	EC50 [5, 9] [mg/L]	EC50 [6, 10] [mg/L]	also measured
COc1cc2c(c3oc4cccc(O)c4c(=O)c13)[C@@H]1C=CO[C@@H]1O2 [Sterigmatocystin]	(−)>20 μg mL^–1	(−)>20	(+) 0.1 μg mL^–1	(+) 0.1 (key: (+): For the microbial metabolites, EC50 < 5 µg mL^−1 and <10 µg mL^−1 were considered as toxic in the BSMI and ICP assays, respectively; nontoxic as (−))	+ (key: LD50 rat p.o. <1000 mg kg ^–1 Classified as Toxic in vivo +.)				
Polyethyleneglycol-p-is-octylphenyl ether [Triton X –100]	(+) 1 μg mL^–1		(−) 30 μg mL^–1			500 mg/kg			Ex Vivo BSMI 1–3d, toxic (+) / nontoxic (−), xenobiotic chemicals [1]: (+) 1 (key: (+): For the xenobiotic chemicals, EC50 values < 10 µg mL^−1 and <20 µg mL^−1 were considered as toxic in the BSMI assay and in the ICP assay, respectively; nontoxic as (−)); In Vitro ICP 2d, toxic (+) / nontoxic (−), xenobiotic chemicals [2]: (−) 30; In Vivo (toxicity to experimental animals), xenobiotic chemicals [4]: + (key: LD50 Fish Inhaled <10 μg mL ^–1 = Toxic in vivo Marked as +.); Toxicity In Vivo LD50 Fish [4]: 5 mg/L
CC(C)=C[C@H]1C[C@H](C)[C@]2(CC[C@]3(C)C[C@H]4[C@H](C(=O)C[C@@]4(C)O)/C(C=O)=C\C[C@H]32)O1 [Ophiobolin, Ophiobolin A]		(+) 0.3 (key: (+): For the microbial metabolites, EC50 < 5 µg mL^−1 and <10 µg mL^−1 were considered as toxic in the BSMI and ICP assays, respectively; nontoxic as (−))		(+) 0.1 (key: (+): For the microbial metabolites, EC50 < 5 µg mL^−1 and <10 µg mL^−1 were considered as toxic in the BSMI and ICP assays, respectively; nontoxic as (−))	+ (key: LD50 rat p.o. <1000 mg kg ^–1 Classified as Toxic in vivo +.)	238 mg/kg	0.3 (≈ 0.749 µM)	0.1 (≈ 0.25 µM)	
Polyethyleneglycol monalkyl ether [Genapol X 080]	(+) 3 μg mL^–1		(−) 30 μg mL^–1			>2000 mg/kg			Ex Vivo BSMI 1–3d, toxic (+) / nontoxic (−), xenobiotic chemicals [1]: (+) 3 (key: (+): For the xenobiotic chemicals, EC50 values < 10 µg mL^−1 and <20 µg mL^−1 were considered as toxic in the BSMI assay and in the ICP assay, respectively; nontoxic as (−)); In Vitro ICP 2d, toxic (+) / nontoxic (−), xenobiotic chemicals [2]: (−) 30; Mitochondrial Toxicity 1d (EC50, acceleration of glycolysis and depolarization of mitochondria) [7]: (+) 5 μg mL^–1; Mitochondrial toxicity after testing with somatic cells [7]: Mitochondrial toxicity was recorded; In Vivo (toxicity to experimental animals), xenobiotic chemicals [4]: + (key: LD50 Fish Inhaled <10 μg mL ^–1 = Toxic in vivo Marked as +.); Toxicity In Vivo LD50 Fish [4]: 5 mg/L
CC1(C)C=Cc2c(ccc3c2[N+]([O-])=C2C(C)(C)[C@@H]4CC56CCCN5C(=O)[C@]4(NC6=O)[C@H]4N5C(=O)[C@@]67CCCN6C(=O)[C@@]56[C@H](c5c(n(O)c8c9c(ccc58)OC(C)(C)C=C9)C(C)(C)[C@@H]6C7)[C@]234)O1 [Stephacidin B]	(+) 0.3 μg mL^–1		(++) 0.3 μg mL^–1						Ex Vivo BSMI 1–3d, toxic (+) / nontoxic (−), microbial metabolites [1]: (+) 0.3 (key: (+): For the microbial metabolites, EC50 < 5 µg mL^−1 and <10 µg mL^−1 were considered as toxic in the BSMI and ICP assays, respectively; nontoxic as (−))
CC1=C2C(=CO[C@H](C)[C@H]2C)C(O)=C(C(=O)O)C1=O [Citrinin]		(−) 20		(+) 10 (key: (+): For the microbial metabolites, EC50 < 5 µg mL^−1 and <10 µg mL^−1 were considered as toxic in the BSMI and ICP assays, respectively; nontoxic as (−))	+ (key: LD50 rat p.o. <1000 mg kg ^–1 Classified as Toxic in vivo +.)	105 mg/kg	20 (≈ 79.9 µM)	10 (≈ 40 µM)	EC50 [5, 11]: ≥ 20 mg/L; EC50 [6, 12]: 13 mg/L (≈ 51.9 µM)
Polyethylene glycol sorbitan mono oleate [Tween 80]	(+) 10 μg mL^–1					>25,000 mg kg^−1			Ex Vivo BSMI 1–3d, toxic (+) / nontoxic (−), xenobiotic chemicals [1]: (+) 10 (key: (+): For the xenobiotic chemicals, EC50 values < 10 µg mL^−1 and <20 µg mL^−1 were considered as toxic in the BSMI assay and in the ICP assay, respectively; nontoxic as (−)); Response in the BSMI assay [1]: weak positive response; In Vitro ICP 2d, toxic (+) / nontoxic (−), xenobiotic chemicals [2]: (−) 500; In Vivo (toxicity to experimental animals), xenobiotic chemicals [4]: −
Cc1cc(O)c2c(c1)C(=O)c1cc(O)cc(O)c1C2=O [Emodin]		(+) 4 (key: (+): For the microbial metabolites, EC50 < 5 µg mL^−1 and <10 µg mL^−1 were considered as toxic in the BSMI and ICP assays, respectively; nontoxic as (−))		(−) 45		1000 mg/kg	4 (≈ 14.8 µM)	45 (≈ 167 µM)	EC50 [8]: 3 mg/L (≈ 11.1 µM)
CC(C)[C@@H]1NC(=O)[C@H](C)OC(=O)[C@@H](C(C)C)NC(=O)[C@@H](C(C)C)OC(=O)[C@H](C(C)C)NC(=O)[C@H](C)OC(=O)[C@@H](C(C)C)NC(=O)[C@@H](C(C)C)OC(=O)[C@H](C(C)C)NC(=O)[C@H](C)OC(=O)[C@@H](C(C)C)NC(=O)[C@@H](C(C)C)OC1=O [Valinomycin]						4 mg/kg			
Acrebol	(+) 0.1 μg mL^–1		(−) >10 μg mL^–1	(−) >10					Ex Vivo BSMI 1–3d, toxic (+) / nontoxic (−), microbial metabolites [1]: (+) 0.1 (key: (+): For the microbial metabolites, EC50 < 5 µg mL^−1 and <10 µg mL^−1 were considered as toxic in the BSMI and ICP assays, respectively; nontoxic as (−)); Mitochondrial Toxicity 1d (EC50, acceleration of glycolysis and depolarization of mitochondria) [7]: (+) 0.1 μg mL^–1
CC(C)[C@H]1C(=O)O[C@H](C(C)C)C(=O)N(C)[C@@H](C(C)C)C(=O)O[C@H](C(C)C)C(=O)N(C)[C@@H](C(C)C)C(=O)O[C@H](C(C)C)C(=O)N1C [Enniatin B]		(+) 0.5 (key: (+): For the microbial metabolites, EC50 < 5 µg mL^−1 and <10 µg mL^−1 were considered as toxic in the BSMI and ICP assays, respectively; nontoxic as (−))		(−) 15	+ (key: LD50 rat p.o. <1000 mg kg ^–1 Classified as Toxic in vivo +.)	350 mg/kg	0.5 (≈ 0.781 µM)	15 (≈ 23.4 µM)	EC50 [5, 11]: 0.6 mg/L (≈ 0.938 µM); EC50 [6, 12]: 18 mg/L (≈ 28.1 µM); EC50 [8]: 2 mg/L (≈ 3.13 µM)
CC1(C)C=Cc2c(ccc3c2[N+]([O-])=C2C3=C[C@@]34NC(=O)[C@]5(CCCN5C3=O)C[C@H]4C2(C)C)O1 [Avrainvillamide]		(+) 0.2 (key: (+): For the microbial metabolites, EC50 < 5 µg mL^−1 and <10 µg mL^−1 were considered as toxic in the BSMI and ICP assays, respectively; nontoxic as (−))		(+) 0.2 (key: (+): For the microbial metabolites, EC50 < 5 µg mL^−1 and <10 µg mL^−1 were considered as toxic in the BSMI and ICP assays, respectively; nontoxic as (−))			0.2 (≈ 0.449 µM)	0.2 (≈ 0.449 µM)	
O=c1cc(O)c1=O [Moniliformin]	(+) 2 μg mL^–1		(−) >20 μg mL^–1	(−) >20	+ (key: LD50 rat p.o. <1000 mg kg ^–1 Classified as Toxic in vivo +.)	50 mg/kg			Ex Vivo BSMI 1–3d, toxic (+) / nontoxic (−), microbial metabolites [1]: (+) 2 (key: (+): For the microbial metabolites, EC50 < 5 µg mL^−1 and <10 µg mL^−1 were considered as toxic in the BSMI and ICP assays, respectively; nontoxic as (−)); Mitochondrial Toxicity 1d (EC50, acceleration of glycolysis and depolarization of mitochondria) [7]: (+) 2 μg mL^–1
C/C1=C\[C@@H](C)C/C=C/[C@H]2[C@@H]3O[C@]3(C)[C@@H](C)[C@H]3[C@H](Cc4c[nH]c5ccccc45)NC(=O)[C@]32C(=O)/C=C/C(=O)[C@@H]1O [Chaetoglobosin A]		(+) <1 (key: (+): For the microbial metabolites, EC50 < 5 µg mL^−1 and <10 µg mL^−1 were considered as toxic in the BSMI and ICP assays, respectively; nontoxic as (−))		(+) 3 (key: (+): For the microbial metabolites, EC50 < 5 µg mL^−1 and <10 µg mL^−1 were considered as toxic in the BSMI and ICP assays, respectively; nontoxic as (−))	+ (key: LD50 rat p.o. <1000 mg kg ^–1 Classified as Toxic in vivo +.)	>400 mg/kg	< 1	3 (≈ 5.67 µM)	
CCCCCCCCCCCCOS(=O)(=O)[O-].[Na+] [SDS, Sodium dodecyl sulfate]	(+) 10 μg mL^–1		(−) 120 μg mL^–1			1288 mg/kg			Ex Vivo BSMI 1–3d, toxic (+) / nontoxic (−), xenobiotic chemicals [1]: (+) 10 (key: (+): For the xenobiotic chemicals, EC50 values < 10 µg mL^−1 and <20 µg mL^−1 were considered as toxic in the BSMI assay and in the ICP assay, respectively; nontoxic as (−)); In Vitro ICP 2d, toxic (+) / nontoxic (−), xenobiotic chemicals [2]: (−) 120; In Vivo (toxicity to experimental animals), xenobiotic chemicals [4]: + (key: LD50 Fish Inhaled <10 μg mL ^–1 = Toxic in vivo Marked as +.); Toxicity In Vivo LD50 Fish [4]: 30 mg/L
